Laboratory results reported in US8507464B2, “Phosphoramidate alkylator prodrugs” (Threshold Pharmaceuticals, Inc., priority 2005, dated 2013).
pIC50: −log10 of the molar value. Like-named read-outs stand apart in the source and are kept apart here.

Key:
NCI-H460 cells [1] = assay: Antiproliferation assay - oxygen dependence; assay type: cell-based, human
Description: . […] The calculated IC50 values (μM) are tabulated in Table Y1 (H460 cells) or Table Y2 (HT29 cells) below.

H460 cell line = assay: Anti-proliferation assay, hypoxia vs normoxia (Table 1A); details: for pIC50: Homo sapiens; for HCR P: ratio of IC50 in normoxia and hypoxia
NCI-H460 cells [2] = assay: Antiproliferation assay (Alamar Blue), anoxia vs air
[3] = system: mouse (MLM) liver microsomal proteins; assay type: in vitro ADME; details: Table 2B
[4] = Plasma stability (Table 2B)
[5] = system: H460 lung carcinoma spheroids; assay: Spheroid model, clonogenic survival; details: read-out: IC90 H460 Spheroid 10% O2
[6] = assay type: physicochemical; details: glassy carbon, Ag/AgCl reference; for Reduction Potentials, 100 mV/sec: scan rate 100 mV/sec; for Reduction Potentials, 10,000 mV/sec: scan rate 10,000 mV/sec
NCI-H460 cells [7] = assay: Clonogenic assay - oxygen dependence; details: Homo sapiens
[8] = system: H460 cells exposed as monolayers; assay: Clonogenic survival of monolayer cells (Example 35); details: Homo sapiens, NCI-H460, 2 h, read-out: IC90 H460 Monolayer N2
HCT116 = assay: Anti-proliferation assay, hypoxia vs normoxia (Table 1B); details: for pIC50: Homo sapiens
MES-SA cells = assay: Antiproliferation assay (Alamar Blue), anoxia vs air; details: Homo sapiens, 2 h
HT29 = assay: Anti-proliferation assay, hypoxia vs normoxia (Table 1B); details: for pIC50: Homo sapiens
HT29 cells = assay: Antiproliferation assay (Alamar Blue), anoxia vs air; details: Homo sapiens, HT-29, 2 h
in vivo = details: CD-1, mouse, 20 mg/kg
[9] = Homo sapiens, NCI-H460, read-out: IC50 in H460 cells, 0.6% O2
[10] = Homo sapiens, NCI-H460, read-out: IC50 in H460 cells, Air
[11] = Homo sapiens, NCI-H460, read-out: IC50 in H460 cells, N2
[12] = NCI-H460, read-out: Hypoxia P (proliferation IC50)
[13] = NCI-H460, read-out: Normoxia P (proliferation IC50)
[14] = Homo sapiens, NCI-H460, 2 h, read-out: IC50 H460 Air, air, 2 h exposure
[15] = Homo sapiens, NCI-H460, 2 h, read-out: IC50 H460 Anoxia, anoxia, 2 h exposure
[16] = Homo sapiens, NCI-H460, read-out: IC50 in H460 cells, 0.3% O2
[17] = NCI-H460, read-out: IC90 H460 0.6% O2
[18] = NCI-H460, read-out: IC90 H460 Air
[19] = NCI-H460, read-out: IC90 H460 N2

Structure (SMILES)	pIC50 (NCI-H460 cells [1]; [9])	pIC50 (NCI-H460 cells [1]; [10])	pIC50 (NCI-H460 cells [1]; [11])	pIC50 (H460 cell line; [12])	pIC50 (H460 cell line; [13])	HCR P (H460 cell line)	pIC50 (NCI-H460 cells [2]; [14])	pIC50 (NCI-H460 cells [2]; [15])	Metabolic stability (MLM) (% at 30 min) [3] [%]	pIC50 (NCI-H460 cells [1]; [16])	Reduction Potentials, 100 mV/sec [6] [mV]	Reduction Potentials, 10,000 mV/sec [6] [mV]	IC90 (NCI-H460 cells [7]; [17]) [nM]	IC90 (NCI-H460 cells [7]; [18]) [nM]	IC90 (NCI-H460 cells [7]; [19]) [nM]	further results
O=[N+]([O-])c1ccc(COP(=O)(NCCCl)NCCCl)s1 [Compound 26]	5.22	4.40	6.52	7.00	4.46	350	4.46	7.00	56	–	–	–	–	–	–	pIC50 (NCI-H460 cells [1]; Homo sapiens, NCI-H460, read-out: IC50 in H460 cells, 0.1% O2): 5.52; pIC50 (NCI-H460 cells [1]; Homo sapiens, NCI-H460, read-out: IC50 in H460 cells, 1% O2): 5.30; pIC50 (NCI-H460 cells [1]; Homo sapiens, NCI-H460, read-out: IC50 in H460 cells, 10% O2): 5.00; Plasma stability (% at 30 min) ([4]; 30 min): 85%
N#Cc1cc(COP(=O)(NCCBr)NCCBr)sc1[N+](=O)[O-] [Compound 97]	–	–	–	–	–	–	–	–	–	–	–	–	–	–	–	pIC50 (NCI-H460 cells [1]; Air; read-out: IC50 in H460 cells, Air): 7.70; pIC50 (NCI-H460 cells [1]; N2; read-out: IC50 in H460 cells, N2): 8.22; pIC50 (NCI-H460 cells [1]; read-out: IC50 in H460 cells, 0.6% O2): 8.00; IC90 ([5]; 2 h exposure, 10% O2): 13000 nM; pIC50 (NCI-H460 cells [2]; read-out: IC50 H460 Air, air, 2 h exposure): 7.00; pIC50 (NCI-H460 cells [2]; read-out: IC50 H460 Anoxia, anoxia, 2 h exposure): 8.00
CC(OP(=O)(NCCBr)NCCBr)c1ccc([N+](=O)[O-])s1 (stereo not drawn) [Compound 88]	6.70	6.30	7.52	–	–	–	6.28	7.52	–	6.30	−559	−629	–	–	–	–
COC(=O)c1cc(C(C)OP(=O)(NCCBr)NCCBr)ccc1OCc1cnc([N+](=O)[O-])n1C (stereo not drawn) [Compound 70]	4.52	4.19	5.70	–	–	–	4.19	5.70	–	–	–	–	8000	20000	2000	IC90 ([5]; Homo sapiens, NCI-H460, 2 h): 25500 nM; IC90 [8]: 1250 nM
O=[N+]([O-])c1ccc(COP(=O)(NCCBr)NCCBr)s1 [Compound 34]	–	5.30	8.00	> 8.00	5.74	>180	5.74	8.00	28	6.00	−584	−663	–	–	–	HCT116 HCR (HCT116): 77; pIC50 (HCT116; HCT-116, read-out: HCT116 P H (proliferation IC50, hypoxia)): 6.89; pIC50 (HCT116; HCT-116, read-out: HCT116 P N (proliferation IC50, normoxic)): 5.00; pIC50 (MES-SA cells; read-out: IC50 MES-SA Air): 5.00; pIC50 (MES-SA cells; read-out: IC50 MES-SA Anoxia): 6.89; HT29 HCR P (HT29): 70; pIC50 (HT29; HT-29, read-out: HT29 P H (proliferation IC50, hypoxia)): 6.10; pIC50 (HT29; HT-29, read-out: HT29 P N (proliferation IC50, normoxic)): 4.24; pIC50 (HT29 cells; read-out: IC50 HT29 Air): 4.24; pIC50 (HT29 cells; read-out: IC50 HT29 Anoxia): 6.10; Plasma stability (at 20 min) ([4]; at 20 min): 85%
C[C@H](CCl)NP(=O)(N[C@H](C)CCl)OCc1cnc([N+](=O)[O-])n1C [Compound 37]	4.60	–	–	–	–	–	< 4.00	6.44	–	–	–	–	5000	90000	200	pIC50 (NCI-H460 cells [1]; Homo sapiens, NCI-H460; read-out: IC50 in H460 cells, Air): < 4.00; pIC50 (NCI-H460 cells [1]; Homo sapiens, NCI-H460; read-out: IC50 in H460 cells, N2): 6.30; AUC (in vivo; ip): 196 µg·h/mL; Cmax (in vivo; ip): 12600 ng/mL; Tmax (in vivo; ip): 2 min; half-life (in vivo; ip): 23.2 min; AUC (in vivo; iv): 172 µg·h/mL; Cmax (in vivo; iv): 15000 ng/mL; Tmax (in vivo; iv): 2 min; half-life (in vivo; iv): 9 min
